In the supplement of paper PMC10307832:

Tests used:
Test in all cases: relative viability (nuclei count vs DMSO), 5 days (fraction); higher = more cells survive
[1] = tested on: BEN
How it was run: (§1)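 Values are medians from duplicate plates. Each reflects relative viability, defined as the nuclei count of treated wells over that of vehicle wells. Lung cancer cell lines in 1536-well plates were pin-tool dosed one day after seeding with one drug alone or with a fixed anchor-drug dose plus five library-drug doses (not always all listed) in √10 steps, then fixed, stained and imaged at 4× after 5 days.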

[2] = tested on: CAL-12T
How it was run: as §1

[3] = tested on: COR-L 105
How it was run: as §1

[4] = tested on: ChaGo-K-1
How it was run: as §1

[5] = tested on: HARA
How it was run: as §1

[6] = tested on: HCC-15
How it was run: as §1

[7] = tested on: HCC-366
How it was run: as §1

[8] = tested on: HCC-44
How it was run: as §1

[9] = tested on: HCC-827
How it was run: as §1

[10] = tested on: HOP-62
How it was run: as §1

[11] = tested on: LC-2-ad
How it was run: as §1

[12] = tested on: LCLC-97TM1
How it was run: as §1

[13] = tested on: LOU-NH91
How it was run: as §1

[14] = tested on: LU99A
How it was run: as §1

[15] = tested on: NCI-H1395
How it was run: as §1

[16] = tested on: NCI-H1650
How it was run: as §1

[17] = tested on: NCI-H1915
How it was run: as §1

[18] = tested on: NCI-H1944
How it was run: as §1

[19] = tested on: NCI-H2009
How it was run: as §1

[20] = tested on: NCI-H2023
How it was run: as §1

[21] = tested on: NCI-H596
How it was run: as §1

Q: For `Nc1cccc2c1CN(C1CCC(=O)NC1=O)C2=O` (stereo not given) [Lenalidomide] + CC1(C)CCC(c2ccc(Cl)cc2)=C(CN2CCN(c3ccc(C(=O)NS(=O)(=O)c4ccc(N[C@H](CCN5CCOCC5)CSc5ccccc5)c(S(=O)(=O)C(F)(F)F)c4)cc3)CC2)C1 [Navitoclax] (partner 0.5 µM), which relative viability ([1]; first compound 0.253 µM) is on record?
A: 0.0599

Q: And the relative viability ([1]; first compound 0.8 µM)?
A: 0.0573

Q: What about the relative viability ([1]; first compound 2.53 µM) of the same compound?
A: 0.0663

Q: And the relative viability ([1]; first compound 8 µM)?
A: 0.0611

Q: And the relative viability ([2]; first compound 0.253 µM)?
A: 1.4

Q: And the relative viability ([2]; first compound 0.8 µM)?
A: 1.33

Q: And the relative viability ([2]; first compound 2.53 µM)?
A: 1.7

Q: And the relative viability ([2]; first compound 8 µM)?
A: 1.3

Q: And the relative viability ([3]; first compound 0.253 µM)?
A: 0.45

Q: And the relative viability ([3]; first compound 0.8 µM)?
A: 0.81

Q: And the relative viability ([3]; first compound 2.53 µM)?
A: 0.717

Q: What about the relative viability ([3]; first compound 8 µM) of the same compound?
A: 0.883

Q: What about the relative viability ([4]; first compound 0.253 µM) of the same compound?
A: 1.08

Q: What about the relative viability ([4]; first compound 2.53 µM) of the same compound?
A: 1.05

Q: And the relative viability ([4]; first compound 8 µM)?
A: 0.949

Q: What about the relative viability ([5]; first compound 0.253 µM) of the same compound?
A: 1.14

Q: And the relative viability ([5]; first compound 0.8 µM)?
A: 1.12

Q: And the relative viability ([5]; first compound 2.53 µM)?
A: 1.19

Q: And the relative viability ([5]; first compound 8 µM)?
A: 1.2

Q: What about the relative viability ([6]; first compound 0.253 µM) of the same compound?
A: 0.698

Q: And the relative viability ([6]; first compound 2.53 µM)?
A: 0.814

Q: What about the relative viability ([6]; first compound 8 µM) of the same compound?
A: 0.676

Q: What about the relative viability ([7]; first compound 0.253 µM) of the same compound?
A: 1.02

Q: What about the relative viability ([7]; first compound 0.8 µM) of the same compound?
A: 1.19

Q: What about the relative viability ([7]; first compound 2.53 µM) of the same compound?
A: 1.13

Q: And the relative viability ([7]; first compound 8 µM)?
A: 1.08

Q: What about the relative viability ([8]; first compound 0.253 µM) of the same compound?
A: 0.966

Q: What about the relative viability ([8]; first compound 0.8 µM) of the same compound?
A: 0.75

Q: And the relative viability ([8]; first compound 2.53 µM)?
A: 1.1

Q: And the relative viability ([8]; first compound 8 µM)?
A: 0.917

Q: And the relative viability ([9]; first compound 0.253 µM)?
A: 1.06

Q: What about the relative viability ([9]; first compound 0.8 µM) of the same compound?
A: 0.977

Q: What about the relative viability ([9]; first compound 2.53 µM) of the same compound?
A: 1.01

Q: What about the relative viability ([9]; first compound 8 µM) of the same compound?
A: 1.07

Q: What about the relative viability ([10]; first compound 0.253 µM) of the same compound?
A: 1.07

Q: And the relative viability ([10]; first compound 0.8 µM)?
A: 0.985

Q: What about the relative viability ([10]; first compound 2.53 µM) of the same compound?
A: 0.944

Q: What about the relative viability ([10]; first compound 8 µM) of the same compound?
A: 1.04

Q: And the relative viability ([11]; first compound 0.253 µM)?
A: 0.448

Q: What about the relative viability ([11]; first compound 0.8 µM) of the same compound?
A: 0.421

Q: What about the relative viability ([11]; first compound 2.53 µM) of the same compound?
A: 0.478

Q: What about the relative viability ([11]; first compound 8 µM) of the same compound?
A: 0.44

Q: What about the relative viability ([12]; first compound 0.8 µM) of the same compound?
A: 0.544

Q: What about the relative viability ([12]; first compound 2.53 µM) of the same compound?
A: 0.502

Q: What about the relative viability ([12]; first compound 8 µM) of the same compound?
A: 0.407

Q: And the relative viability ([13]; first compound 0.253 µM)?
A: 0.614

Q: What about the relative viability ([13]; first compound 0.8 µM) of the same compound?
A: 0.631

Q: What about the relative viability ([13]; first compound 2.53 µM) of the same compound?
A: 0.673

Q: And the relative viability ([13]; first compound 8 µM)?
A: 0.692

Q: What about the relative viability ([14]; first compound 0.253 µM) of the same compound?
A: 0.853

Q: What about the relative viability ([14]; first compound 0.8 µM) of the same compound?
A: 0.963

Q: And the relative viability ([14]; first compound 2.53 µM)?
A: 0.925

Q: And the relative viability ([14]; first compound 8 µM)?
A: 0.502

Q: And the relative viability ([15]; first compound 0.253 µM)?
A: 1.2

Q: What about the relative viability ([15]; first compound 2.53 µM) of the same compound?
A: 1.31

Q: What about the relative viability ([15]; first compound 8 µM) of the same compound?
A: 0.978

Q: And the relative viability ([16]; first compound 0.253 µM)?
A: 1.06

Q: And the relative viability ([16]; first compound 0.8 µM)?
A: 1.22

Q: What about the relative viability ([16]; first compound 2.53 µM) of the same compound?
A: 1.4

Q: And the relative viability ([16]; first compound 8 µM)?
A: 1.24

Q: And the relative viability ([17]; first compound 0.253 µM)?
A: 0.775

Q: And the relative viability ([17]; first compound 0.8 µM)?
A: 0.782

Q: And the relative viability ([17]; first compound 2.53 µM)?
A: 0.816

Q: And the relative viability ([17]; first compound 8 µM)?
A: 0.835

Q: What about the relative viability ([18]; first compound 0.253 µM) of the same compound?
A: 0.984

Q: What about the relative viability ([18]; first compound 0.8 µM) of the same compound?
A: 1.08

Q: What about the relative viability ([18]; first compound 2.53 µM) of the same compound?
A: 1.02

Q: What about the relative viability ([18]; first compound 8 µM) of the same compound?
A: 0.873

Q: What about the relative viability ([19]; first compound 0.253 µM) of the same compound?
A: 1.21

Q: And the relative viability ([19]; first compound 0.8 µM)?
A: 1.26

Q: What about the relative viability ([19]; first compound 2.53 µM) of the same compound?
A: 1.21

Q: And the relative viability ([19]; first compound 8 µM)?
A: 1.28

Q: And the relative viability ([20]; first compound 0.253 µM)?
A: 1

Q: What about the relative viability ([20]; first compound 0.8 µM) of the same compound?
A: 1.13

Q: What about the relative viability ([20]; first compound 2.53 µM) of the same compound?
A: 1.05

Q: And the relative viability ([20]; first compound 8 µM)?
A: 1.01

Q: What about the relative viability ([21]; first compound 0.253 µM) of the same compound?
A: 0.951

Q: What about the relative viability ([21]; first compound 0.8 µM) of the same compound?
A: 0.795

Q: What about the relative viability ([21]; first compound 2.53 µM) of the same compound?
A: 0.989

Q: What about the relative viability ([21]; first compound 8 µM) of the same compound?
A: 0.879
